Reference: US20220313694A1, “REDUCED CALORIC INTAKE AND ANTICANCER AGENTS FOR THE TREATMENT OF CANCER” (IFOM FONDAZIONE ISTITUTO FIRC DI ONCOLOGIA MOLECOLARE, priority 2021, published 2022)

What was measured:
SUM159 tumour masses = assay: Ex vivo mammosphere forming assay on SUM159 tumour masses; format: cell-based, human
[1] = test system: SUM159 tumour cells derived from in vivo xenografts; assay: Limiting dilution assay in recipient NSG mice; design: species or system human
4T1-luc cells = assay: Growth of 4T1-luc cells in the mammary fat pad of Balb-c mice; format: in vivo, mouse; conditions: 2DG once a day i.p. combined with 4 cycles of FMD
[2] = test system: 4T1 tumour masses (CD44highCD24low subpopulation); assay: CD44CD24 flow cytometry of 4T1 tumour masses; format: in vivo, mouse; conditions: 2DG combined with FMD
Description: Cells were harvested and washed in PBS 1% BSA and pellets were resuspended in blocking buffer (PBS 10% BSA) and incubated for 30 min at 4° C. light protected. After a wash in PBS 1% BSA, cells were incubated with antibodies solution (200 μl/1×10^6 cells) for 45 min at 4° C. […] SUM159 samples were analysed by flow cytometry with Attune NxT flow cytometer and data were processed by Kaluza analysis software (Beckman coulter, version 2.0). 4T1 samples were analysed by flow cytometry with FACSCalibur (BD) and data were processed by FlowJo software.

SUM159 xenografts = assay: Growth of SUM159 xenografts in NOD scid gamma (NSG) mice; conditions: agent combined with FMD cycles, compared with FMD or drug alone
4T1 cells = assay: In vitro sphere forming assay, 4T1 cells under CTR/STS; format: cell-based, mouse; conditions: STS (0.5 g/l glucose, 1% FBS), 48 h; agent added (8-Br-cAMP; glucose 1 g/l)
[3] = tumour masses from mice treated with agent combined with FMD cycles
[4] = tumour masses from mice treated with drug under AL diet

Row | Structure (SMILES) | number of ex vivo mammospheres (sphere formation) (SUM159 tumour masses; [3]) | number of ex vivo mammospheres (sphere formation) (SUM159 tumour masses; [4]) | time tumor formation was prevented ([1]; donor mice 2DG + FMD, 1,000 cells dilution level) | mouse survival in the limiting dilution assay ([1]; donor mice treated with 2DG + FMD) | tumor progression (4T1-luc cells) | CSCs (CD44 and CD24 expression) [2] | tumor progression / anti-tumor activity (SUM159 xenografts) | in vitro sphere formation (4T1 cells)
1 | O=CC[C@@H](O)[C@H](O)[C@H](O)CO [2DG, 2-Deoxy-D-Glucose] | decreasing the number of mammospheres derived by tumor masses, even after a multiple serial propagation | did not have any effect under AL conditions | more than 150 days | potentiated the effect of FMD in increasing mouse survival compared to 2DG and FMD alone | potentiated the effect of FMD both in delaying tumor progression | reducing CSCs | potentiated the effect of FMD both in delaying tumor progression | 
2 | Nc1ncnc2c1nc(Br)n2[C@@H]1O[C@@H]2COP(=O)(O)O[C@H]2[C@H]1O [8-Br-cAMP, 8-Bromoadenosine 3′,5′-cyclic mono-phosphate] |  |  |  |  |  |  |  | reversed fasting/STS-dependent spheres reduction
3 | OC[C@H]1OC(O)[C@H](O)[C@@H](O)[C@@H]1O (stereo partly drawn) [glucose] | completely rescued the FMD-dependent reduction of mammospheres |  |  |  |  |  | partially reversed the FMD effects on tumor progression | reversed the STS effect on 4T1 sphere formation
4 | CN(C)C(=N)N=C(N)N [metformin] |  | reduced tumor growth and sphere formation |  |  |  |  | did not show any additive or synergistic antitumor effect when combined with the FMD | 
5 | O=C(Oc1cccc(F)c1OC(=O)c1cccc(O)c1)c1cccc(O)c1 [WZB117] |  | mimicked the effect of FMD on reducing the number of spheres formation |  |  |  |  | did not potentiate the anti-tumor activity of FMD | 
